From patent US10844049B2, “GLP-1R agonists and uses thereof” (QILU REGOR THERAPEUTICS INC., priority 2018, dated 2020)

Assays:
[1] = Monkey oral pharmacokinetic (PK) study, aged, obese, and diabetic male monkeys; type: in vivo; details: Dose 2, non-naïve aged, obese, and diabetic male Macaca fascicularis monkeys
Experimental: (§1) Appropriate volumes of vehicles (e.g., 2% Tween 80 (v:v) and 0.5% MC (w:v) in saline or 0.5% MC (w:v) in water were then added into the mortar containing the ground compounds, and the mixture was then grinded with a pestle until a homogeneous paste was formed. Additional appropriate volumes of vehicles were added into the mortar containing each compound, and the mixture was grinded further with the pestle until a homogeneous suspension was obtained.
(§2) The rest of the vehicle was added to make up the final dosing volume of about 1 mg/mL or 2 mg/mL (i.e., final dosing volume of about 5 mL/kg), and the homogenous suspension was continuously stirred prior to and during the dosing.
(§3) Non-naïve Cynomolgus male monkeys (n=3/test article; sourced from Hainan Jingang Biotech Co., Ltd., Nayang Xmtan, Fucheng Town, Qiongshan District, Haikou City, Hainan Province, China); or non-naïve aged, obese, and diabetic male Macaca fascicularis monkeys (n=3/test article, Source: Kunming Biomed International Colony) were used in pre-clinical in vivo studies. All non-naïve Cynomolgus male monkeys were approximately 3 to 5 years old, weighed about 2.5-5 kg, and were within ±20% of the average body weight. All non-naïve aged, obese, and diabetic male Macaca fascicularis monkeys were approximately 12 to 20 years old, weighed about >8-12 kg.
(§4) All animals were fasted overnight before dosing, and the food were supplied approximately 4 hours post dose (with free access to water all the time).
(§5) Animals were restrained at designated time points for blood sampling. Approximately 500 μL of blood samples was taken via cephalic or saphenous vein into EDTA-K2 tubes. Blood samples were put on wet ice before centrifugation.
(§6) For oral administration (PO) of either Dose 1 or Dose 2: blood samples were collected at pre-dose, and at 15 min, 30 min, 1 hr, 2 hr, 4 hr, (6 hr for compounds 19 and 28 with cynomolgus monkeys only), 8 hr, 12 hr, and 24 hr post dose (i.e., 9 or 10 total time points for each compound at each dose).
(§7) The blood samples were centrifuged at approximately 2,000-4,000 rpm for about 10-15 minutes at 2-8′C, and each resulting plasma portion was then transferred into an individual tube.
(§8) LC-MS/MS methods were developed, and bioanalysis for the test articles in monkey plasma was performed according to the developed LC-MS/MS methods.
Undiluted plasma samples: An aliquot of 20-50 μL plasma sample was mixed with 200 μL of ACN or MeOH containing one of the internal standards (IS, e.g., Diclofenac or Terfenadine). […]
(§9) Pharmacokinetics parameters, including area under the curve (AUC0-t), maximum plasma concentration (Cmax), time to reach maximum plasma concentration (Tmax), oral bioavailability (F %), etc., were calculated using Phoenix software (Version 6.4) and non-compartment model.

[2] = Monkey oral pharmacokinetic (PK) study, non-naïve Cynomolgus male monkeys; type: in vivo; details: for plasma concentration-time profile: PO, over about 24 hours after oral dosing; for Tmax / bioavailability: male, cynomolgus monkey, plasma; for Tmax / bioavailability / AUC0-24 h / Cmax: oral
Experimental: as §1, §2, §3, §4, §5, §6, §7, §8
Undiluted plasma samples: An aliquot of 20-50 μL plasma sample was mixed with 200 μL of ACN or MeOH containing one of the internal standards (IS, e.g., Diclofenac or Terfenadine). The mixture was then vortexed for about 1-5 min, and centrifuged at about 4,000-5,800 rpm for about 10-15 min. An aliquot of 1 μL supernatant was used for LC-MS/MS analysis.
as §9

AUC0-24 h [1] [Arbitrary units]	Cmax [1] [Arbitrary unit]	Tmax ([1]; cynomolgus monkey, plasma) [h]	bioavailability ([1]; cynomolgus monkey, plasma) [%]	plasma concentration-time profile [2]	Tmax ([2]; Dose 1) [h]	bioavailability ([2]; Dose 1) [%]	AUC0-24 h ([2]; Dose 1) [Arbitrary units]	Cmax ([2]; Dose 1) [Arbitrary unit]	Tmax ([2]; Dose 2) [h]	bioavailability ([2]; Dose 2) [%]	AUC0-24 h ([2]; Dose 2) [Arbitrary units]	Cmax ([2]; Dose 2) [Arbitrary unit]	Structure (SMILES)
2470	413	8.8	15.5	sustained at a more constant level	2.7	10.8	1130	125	–	–	–	–	N#Cc1ccc(COc2cccc(C3=CCN(Cc4nc5ccc(C(=O)O)cc5n4C[C@@H]4CCO4)CC3)n2)c(F)c1 [Compound 19, (S)-2-((4-(6-(4-cyano-2-fluorobenzyloxy)pyridin-2-yl)-5,6-dihydropyridin-1(2H)-yl)methyl)-1-(oxetan-2-ylmethyl)-1 h-benzo[d]imidazole-6-carboxylic add]
–	–	–	–	sustained at a more constant level	3.3	56.1	24900	3910	–	–	–	–	O=C(O)c1ccc2nc(CN3CC=C(c4cccc(OCc5ccc(Cl)cc5F)c4)CC3)n(C[C@@H]3CCO3)c2c1 [Compound 28, (S)-2-((4-(3-((4-chloro-2-fluorobenzyl)oxy)phenyl)-3,6-dihydropyridin-1(2H)-yl)methyl)-1-(oxetan-2-ylmethyl)-1 h-benzo[d]imidazole-6-carboxylic add]
–	–	–	–	sustained at a more constant level	–	–	–	–	1.2	41	21800	3380	O=C(O)c1ccc2nc(CN3CC=C(c4ccc(F)c(OCc5ccc(Cl)cc5F)c4)CC3)n(C[C@@H]3CCO3)c2c1 [Compound 29, (S)-2-((4-(3-((4-chloro-2-fluorobenzyl)oxy)-4-fluorophenyl)-3,6-dihydropyridin-1(2H)-yl)methyl)-1-(oxetan-2-ylmethyl)-1 h-benzo[d]imidazole-6-carboxylic acid]
–	–	–	–	sustained at a more constant level	–	–	–	–	4	9.93	1500	184	N#Cc1ccc(COc2cccc(C3=CCN(Cc4nc5ccc(C(=O)O)nc5n4C[C@@H]4CCO4)CC3)n2)c(F)c1 [Compound 225, (S)-2-((6-((4-cyano-2-fluorobenzyl)oxy)-3′,6′-dihydro-[2,4′-bipyridin]-1′(2′H)-yl)methyl)-3-(oxetan-2-ylmethyl)-3H-imidazo[4,5-b]pyridine-5-carboxylic add]
